Assay results as given in patent US20240002387A1, “METHOD FOR PREPARING BTK DEGRADING AGENT” (HAISCO PHARMACEUTICALS PTE. LTD., priority 2020, published 2024).
pIC50: −log10 of the molar value.

Tests used:
BTK [1] = molecular target: BTK (Homo sapiens (Human), UniProt Q06187); assay: Detection of BTK degradation in Mino cells; format: cell-based
Protocol: Mino human mantle cell lymphoma cell line was purchased from ATCC and cultured under the following conditions: RPMI-1640+15% FBS+1% double antibody in a 37° C., 5% CO2 incubator. Cells were plated in a 6-well plate, with 5×10^5 cells/well. After plating, the compounds at different concentrations were added and cultured in an incubator at 37° C. under 5% CO2 for 48 hours. After culturing, the cells were collected, and RIPA lysis buffer (Beyotime, Cat. P0013B) was added. The cells were lysed on ice for 15 minutes and centrifuged at 12000 rpm at 4° C. for 10 minutes. The protein sample of the supernatant was collected, and the protein was quantified by using the BCA kit (Beyotime, Cat. P0009), and then the protein was diluted to 0.25 mg/mL. The expressions of BTK (CST, Cat. 8547S) and the internal reference (3-actin (CST, Cat. 3700S) were detected using a fully automated western blot quantitative analyzer (Proteinsimple) with a kit (Protein simple, Cat. SM-W004). The expression level of BTK relative to the internal reference was calculated using Compass software, and the DC50 value was calculated using Origen9.2 software according to formula (1). Specifically, the BTK administration denoted the expression level of BTK in administration groups at different doses, and the BTK vehicle denoted the expression level of BTK in the vehicle control group. […]

BTK [2] = molecular target: BTK (Mus musculus (Mouse), UniProt P35991); assay: Detection of BTK protein degradation in spleen of mice; format: in vivo
Chain of BTK (Mus musculus (Mouse), UniProt P35991) (P35991 whole entry): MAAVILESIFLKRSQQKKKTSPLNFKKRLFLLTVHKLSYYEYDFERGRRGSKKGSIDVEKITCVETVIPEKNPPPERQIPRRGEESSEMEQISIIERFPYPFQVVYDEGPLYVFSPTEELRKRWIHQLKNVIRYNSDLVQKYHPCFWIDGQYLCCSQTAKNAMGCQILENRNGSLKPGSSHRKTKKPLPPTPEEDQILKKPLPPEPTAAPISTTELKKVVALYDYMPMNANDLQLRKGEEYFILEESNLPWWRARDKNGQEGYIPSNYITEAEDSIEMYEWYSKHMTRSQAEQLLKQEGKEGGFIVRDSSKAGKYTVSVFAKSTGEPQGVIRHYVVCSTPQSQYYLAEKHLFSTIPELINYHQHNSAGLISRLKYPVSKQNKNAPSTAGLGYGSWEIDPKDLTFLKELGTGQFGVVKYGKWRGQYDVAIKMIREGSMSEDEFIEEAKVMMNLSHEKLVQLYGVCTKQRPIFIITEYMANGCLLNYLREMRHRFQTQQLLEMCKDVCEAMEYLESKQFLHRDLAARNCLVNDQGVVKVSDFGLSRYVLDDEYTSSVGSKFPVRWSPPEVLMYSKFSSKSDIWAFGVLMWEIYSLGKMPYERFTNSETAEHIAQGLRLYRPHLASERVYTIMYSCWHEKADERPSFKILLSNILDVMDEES
Protocol: Female ICR mice, 6-8 weeks old, were purchased from BEIJING VITAL RIVER LABORATORY ANIMAL TECHNOLOGY CO., LTD., and the experiment was started after 3 days of acclimatization. After intragastric administration of different doses of the compound for 3 consecutive days, the spleen of mice was taken, the spleen cells were collected, and RIPA lysis buffer (Beyotime, Cat. P0013B) was added. The cells were lysed on ice for 15 minutes and centrifuged at 12000 rpm at 4° C. for 10 minutes. The protein sample of the supernatant was collected, the protein was quantified by using the BCA kit (Beyotime, Cat. P0009), and then the protein was diluted to 0.25 mg/mL. The expressions of BTK (CST, Cat. 8547S) and the internal reference (3-actin (CST, Cat. 3700S) were detected using a fully automated western blot quantitative analyzer (Proteinsimple). The expression level of BTK relative to the internal reference was calculated using Compass software, and the DD50 value was calculated using Origen9.2 software according to formula (2). Specifically, the BTKadministration denoted the expression level of BTK in administration groups at different doses, and the BTKvehicle denoted the expression level of BTK in the vehicle control group.
BTK %=BTKadministration/BTKvehicle×100 formula (2)

BTK wt = BTK wt (Homo sapiens (Human), UniProt Q06187); assay: In vitro kinase detection, BTK wt; format: biochemical
Chain of BTK wt (Q06187 whole entry): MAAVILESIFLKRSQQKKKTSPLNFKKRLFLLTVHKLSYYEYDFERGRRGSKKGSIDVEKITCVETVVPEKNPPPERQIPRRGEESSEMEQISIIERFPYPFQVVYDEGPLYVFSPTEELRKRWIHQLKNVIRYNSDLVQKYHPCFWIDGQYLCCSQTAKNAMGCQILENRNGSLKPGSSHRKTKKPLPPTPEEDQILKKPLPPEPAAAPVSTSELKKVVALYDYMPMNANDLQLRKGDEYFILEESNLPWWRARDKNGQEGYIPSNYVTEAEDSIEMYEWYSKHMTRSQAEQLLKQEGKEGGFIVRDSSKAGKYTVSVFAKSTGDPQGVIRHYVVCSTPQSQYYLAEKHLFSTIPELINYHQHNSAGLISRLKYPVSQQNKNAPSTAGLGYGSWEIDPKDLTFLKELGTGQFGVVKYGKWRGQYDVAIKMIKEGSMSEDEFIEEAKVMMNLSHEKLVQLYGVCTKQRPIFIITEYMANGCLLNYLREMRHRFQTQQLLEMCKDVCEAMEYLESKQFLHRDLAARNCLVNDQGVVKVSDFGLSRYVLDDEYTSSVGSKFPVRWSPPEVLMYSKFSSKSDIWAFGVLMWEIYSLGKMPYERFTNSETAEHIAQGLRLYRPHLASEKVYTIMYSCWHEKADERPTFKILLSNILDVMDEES
Protocol: (§1) Kinases BTK wt (Carna, Cat. No. 08-180) and BTK C481S (Cama, Cat. No. 08-547) were prepared into a 2.5× kinase solution, and the substrates FAM-P2 (GL Biochem, Cat. No. 112394) and ATP (Sigma, Cat. No. A7699-1G) were prepared into a 2.5× substrate solution, respectively. 5 μL of compounds at different concentrations were added to a 384-well plate. 10 μl of 2.5× kinase solution was added, and the resulting mixture was incubated at room temperature for 10 min. 10 μL of 2.5× substrate solution was added, and the mixture was incubated at 28° C. for an appropriate period of time. The reaction was stopped by adding 30 μL of stop buffer, and the detection was carried out by using Caliper EZ reader2. The IC50 value was calculated by using XLFit excel add-in version 5.4.0.8 software. The calculation formula of the inhibition rate was shown in formula (3), wherein max denoted the readout of the DMSO control, min denoted the readout of the negative control, and conversion denoted the readout of the compound

BTK C481S = BTK C481S (Homo sapiens (Human), UniProt Q06187, C481S); assay: In vitro kinase detection, BTK C481S; format: biochemical
Chain of BTK C481S (Q06187 whole entry C481S): as the sequence (Q06187 whole entry) above, with C481S counted along it
Protocol: as §1

Chain of BTK (Homo sapiens (Human), UniProt Q06187) (Q06187 whole entry): as the sequence (Q06187 whole entry) above

SMILES: Nc1ncnc2c1c(-c1ccc(Oc3ccccc3)cc1)nn2C1CCN(C2CN(C3CN(c4ccc5c(c4)C(=O)N(C4CCC(=O)NC4=O)C5=O)C3)C2)CC1 (stereo not shown) [Compound 1, 5-[3-[3-[4-[4-amino-3-(4-phenoxyphenyl]pyrazolo[3,4-d]pyrimidin-1-yl]-1-piperidyl]azetidin-1-yl]azetidin-1-yl]-2-(2,6-dioxo-3-piperidyl)isoindoline-1,3-dione]
- degradation effect on BTK in Mino cells (conclusion) (BTK [1]): significant degradation effect
- DC50 (BTK [1]; 48 hours, western blot): 10.9 nM
- degradation effect on BTK proteins in spleen of mice (conclusion) (BTK [2]): significant degradation effect
- pIC50 (BTK wt): 8.20
- inhibitory effect on BTK wt kinase (conclusion) (BTK wt): significant inhibitory effect
- pIC50 (BTK C481S): 8.10
- inhibitory effect on BTK C481S kinase (conclusion) (BTK C481S): significant inhibitory effect
